Measured values from patent publication US20240342216A1, “METHODS OF TREATING CANCER” (Therapeutics By Design, LLC, priority 2021, published 2024).
Entries after “also recorded” stand apart in the source; their conditions may differ.

Experiments:
[1] = system: human breast cancer stem cells; assay: FACS quantification of CD44+ and E-cadherin+ cells; type: cell-based; settings: for percent loss of CD44+ cells / percent gain in E-cadherin+ cells: non-adherent culture 8 days, vs untreated; for change in CD44+ cells (stem cell phenotype), in words / change in E-Cadherin+ cells (epithelial phenotype), in words: vs untreated control
Procedure: Untreated cells were incubated with APC labeled mouse anti-human antibody to CD44 antibody and FITC labeled rat anti-human E-Cadherin antibody. Cells were gated to exclude events in water and events due to cell death and debris. Cells were then gated to identify CD44+ and E-Cadherin+ populations based on corresponding fluorescence activity and labeled R7 and R11 respectively. […] Untreated cells were incubated with corresponding isotype antibodies, APC labeled mouse IgG1 and FITC labeled mouse IgG1. Cells were gated to exclude events in water and events due to cell death and debris.
(§1) Cells were plated and incubated for 24 hours to form tumorspheres. On day 2, cells were treated with 300 μM P123, followed by subsequent treatments on days 3, 5, and 8. Cells were then incubated with APC labeled mouse anti-human CD44 antibody and FITC labeled rat anti-human E-Cadherin antibody. Cells were gated to exclude events in water and events due to cell death and debris. Cells were then gated to identify CD44+ and E-Cadherin+ populations based on corresponding fluorescence activity and labeled R7 and R11 respectively. […] Cells were treated with P123 as described in (A). Cells were then incubated with corresponding isotype antibodies, APC labeled mouse IgG1 and FITC labeled mouse IgG1. Cells were gated to exclude events in water and events due to cell death and debris.
as §1, with “BMP-7 at 430 ng/ml with” for “300 μM P123, followed by”, “treatments at 362 ng/ml” for “treatments”, “day” for “days”, “3, 314 ng/ml on day” for “3,”, “277 ng/ml on day 8 (media was added at 10% volume resulting in decreased concentrations).” for “8.”, “BMP-7” for “P123”
Differentiation of chemo-resistant cancer stem cells, specifically a loss of its stem cell phenotype and self-renewal ability, could be a viable approach to the treatment of tumor recurrence and metastasis (Chirasani S R, Sternjak A, Wend P, et al. Bone morphogenetic protein-7 release from endogenous neural precursor cells suppresses the tumourigenicity of stem-like glioblastoma cells. Brain 2010, 133:1961-1972). Although this approach may or may not directly kill the cancer cells, it could make CSCs more responsive to conventional chemotherapies. Therefore, Peptide 123 and BMP-7 were examined to determine if they affected differentiation of human breast cancer stem cells. Sensitive flow cytometry method (Gupta V et al., Methods Mol Biol. 2011, 716: 179-191) to quantify CD44+, indicating stem cell phenotype, and E-cadherin+, indicating epithelial phenotype cells, after treatment with or without P123 (SEQ ID NO: 1) and BMP-7. Human breast cancer stem cells were grown in non-adherent cell suspension in serum-free medium for 8 Days. […] Importantly, the percent loss of CD44+ cells after treatment with the P123, 50%, was greater than that after treatment with BMP-7, 19% (FIGS. 4 and 5). Furthermore, a gain in E-cadherin+ cells was observed, which was proportional to the loss of CD44+ cells (FIGS. 4-6). Similarly, the percent gain in E-cadherin+ cells after treatment with P123, 50%, was greater than that after treatment with BMP-7, 19%, (FIG. 7).

[2] = system: bulk tumor cell growth from prostate cancer; settings: by activating SMAD 1/5/8 signaling; Bosukonda et al. 2009; cited from earlier work
[3] = system: human breast cancer stem cells; assay: mammosphere (tumorsphere) formation assay, self-renewal in vitro; type: cell-based; settings: for inhibition of mammosphere / tumorsphere formation: non-adherent culture, serum-free stem cell medium, 5 to 7 days
Procedure: Isolated human breast cancer stem cells treated with BMP-7 (500 ng/ml) for 7 days in non-adherent culture.
To investigate Peptide 123 (SEQ ID NO: 1) and BMP-7 effects on cancer stem cell function, their ability to influence self-renewal in vitro by using the mammosphere assay was examined. The mammosphere assay was developed as a method to propagate mammary epithelial stem cells (MaSC) in vitro by Dontu et al. (Genes Dev 17: 1253-1270 (2003)).
A procedure as described in manufacturer's manual (ProMab, California) was followed to grow cancer stem cells into mammospheres. For mammosphere culture, isolated human breast cancer stem cells were seeded in six well ultralow adherence plates (Corning Inc., Corning, NY, USA) and grown as non-adherent cell suspensions in serum-free stem cell culture medium (ProMab, California). Primary and secondary mammosphere formation was achieved by using weekly trypsinization and dissociation, followed by reseeding in ultralow adherence six well plates.

Q: For “CYFDDSSNVLCKKYRS [Peptide 123, TDFRP, a peptide agonist of BMP signaling]”, which “percent loss of CD44+ cells” value ([1]; 300 uM, treated days 2, 3, 5, 8) is on record?
A: 50%

Q: And the “percent gain in E-cadherin+ cells” value ([1]; 300 uM)?
A: 50%

Q: And the “change in CD44+ cells (stem cell phenotype), in words” value ([1]; 300 uM, listed as P123)?
A: marked decline in CD44+ cells; also recorded: marked decrease in CD44+ cells

Q: And the “change in E-Cadherin+ cells (epithelial phenotype), in words” value ([1]; 300 uM, listed as P123)?
A: marked increase in E-Cadherin+ cells; also recorded: majority of P123 treated cells were E-Cadherin+

Q: What about the “inhibition of bulk tumor cell growth from prostate cancer” value [2] of the same molecule?
A: capable of inhibiting bulk tumor cell growth from prostate cancer

Q: And the “inhibition of mammosphere / tumorsphere formation” value ([3]; 300 μM)?
A: profound inhibition of tumorsphere formation

Q: And the “inhibition of mammosphere / tumorsphere formation” value ([3]; 300 μM, listed as P123)?
A: profound inhibition of mammosphere formation

B1: BMP-7: bone morphogenetic protein-7, member of the transforming growth factor-beta superfamily (protein, UniProt P18075 293-431, looked up)
Bone morphogenetic protein 7: STGSKQRSQNRSKTPKNQEALRMANVAENSSSDQRQACKKHELYVSFRDLGWQDWIIAPEGYAAYYCEGECAFPLNSYMNATNHAIVQTLVHFINPETVPKPCCAPTQLNAISVLYFDDSSNVILKKYRNMVVRACGCH
Q: Which “percent gain in E-cadherin+ cells” value ([1]; 314-430 ng/ml) does the source give for B1 here?
A: 19%

Q: What about the “percent loss of CD44+ cells” value ([1]; 314-430 ng/ml) of the same molecule?
A: 19%

Q: And the “change in CD44+ cells (stem cell phenotype), in words” value ([1]; 314-430 ng/ml)?
A: marked decline in CD44+ cells; also recorded: a decrease in CD44+ cells

Q: What about the “change in E-Cadherin+ cells (epithelial phenotype), in words” value ([1]; 314-430 ng/ml) of the same molecule?
A: an increase in E-Cadherin cells; also recorded: an increase E-Cadherin+ with a large portion of CD44+ remaining

Q: And the “mammosphere formation after withdrawal of treatment” value ([3]; 500 ng/ml for 7 days, then 7 days with no treatment)?
A: regained the ability to form tumorspheres; also recorded: significant increase in Mammosphere formation

Q: And the “inhibition of mammosphere / tumorsphere formation” value ([3]; 500 ng/ml)?
A: inhibited tumorsphere formation; also recorded: moderate inhibition of mammosphere formation
